Data taken from patent US8569268B2, “Acrylate/methacrylate-based diblock copolymer/anthranilic diamide compositions for propagule coating” (E I du Pont de Nemours and Company, priority 2010, dated 2013).

Test system: Spodoptera frugiperda
Experiment: Laboratory test with 2nd instar larva of Spodoptera frugiperda on maize leaves
Format: in vivo

With CNC(=O)c1cc(Cl)cc(C)c1NC(=O)c1cc(Br)nn1-c1ncccc1Cl [Compound 2, 3-bromo-N-[4-chloro-2-methyl-6-[(methylamino)carbonyl]phenyl]-1-(3-chloro-2-pyridinyl)-1H-pyrazole-5-carboxamide] the “concentration needed to achieve 100% mortality within 72 h” value was 0.037 micrograms per g of tissue and the “concentration resulting in 50% mortality within 72 h” value was 0.033 micrograms per g of leaf tissu.
